Experimental data as given in patent publication US20240130944A1, “LRAT INHIBITORS FOR TREATING SKIN AGEING” (DSM IP Assets B.V., priority 2021, published 2024).
One block for each compound: values may come before it.

Experiments:
recombinant LRAT enzyme = biological target: T1, recombinant LRAT enzyme (Homo sapiens, UniProt O95237); experiment: LRAT inhibition assay; assay type: biochemical; settings: inhibitor concentration 100 [μm]; relative to non-inhibited control reaction
T1 construct: purchased Abnova H00009227-PO1
T1 sequence (O95237 1-230): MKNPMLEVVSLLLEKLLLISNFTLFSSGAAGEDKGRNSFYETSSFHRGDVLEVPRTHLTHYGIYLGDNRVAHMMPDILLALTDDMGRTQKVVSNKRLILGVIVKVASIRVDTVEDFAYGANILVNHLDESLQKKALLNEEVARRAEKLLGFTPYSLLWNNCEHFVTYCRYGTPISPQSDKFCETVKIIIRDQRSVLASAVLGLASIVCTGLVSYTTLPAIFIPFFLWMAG
Procedure: The following buffer was prepared and stored at 4° C.: 0.05 M potassium phosphate, 2.5 mM dithioerythritol, pH 7.0(PO4/DTE). On the day of the assay, 1 mg BSA per mL of buffer was added to give a P04/DTE/BSA working buffer. Retinol substrate (Fluke, 1 mM) was prepared in acetonitrile (Riedel-de-Haen, Chromasolv) and stored in amber bottles under nitrogen gas at −20° C. Solutions of 4 mM dilauroyl phosphatidyl choline in ethanol were prepared and stored at −20° C. Inhibitors were prepared as 10 mM stock solutions according their solubilities in H2O, ethanol, acetonitrile, DMSO or acetic acid. The quenching solution was prepared using pure ethanol containing 50 μg/mL butylhydroxytoluene (Aldrich, BHT) A pentane solution containing 50 μg/mL BHT was used for the extractions.
To a 2 dram glass vial, the following were added in order: […] buffer to give a total volume of 500 μL, 5 μL acyl donor (dilauroyl phosphatidyl choline), 5 μL inhibitor or solvent blank (10 mM stock or further dilutions) followed by 2 μg recombinant LRAT enzyme (Abnova, H00009227-PO1). The mixture was incubated for 5 min. at 37° C. to equilibrate the reaction temperature and then 5 μL of a 1 mM retinol solution was added. The vials were capped, vortexed for 5 seconds and incubated for 60 minutes at 37° C. The reaction was quenched by adding 0.5 mL of a ethanol/BHT quenching solution. The retinoids were extracted by adding 1 mL pentane/BHT, vortexing the tubes for several seconds and centrifuging the tubes at 4000 rpm in a bench-top centrifuge for 5 min. to quickly separate the layers. The upper pentane layer was removed into a clean vial, and the aqueous layer re-extracted twice with another 1 mL pentane/BHT, as described above. […] The dried residue was stored at −20° C. and directly analyzed by HPLC. The amount of retinyl laurate was quantified for LRAT activity by integration of the HPLC or UPLC signal as described below. […]
Two HPLC protocols were used for retinoid analysis. The separation of retinol and retinol esters was performed with a reverse-phase analytical column (Waters Symmetry (R), 75×4.6 mm, 3.5 μm; Eluent A: 0.07% trifluoroacetic acid TFA in water, B: 0.07% TFA in acetonitrile (AcN), linear gradient from 1% B to 99% B in 6 min, 24 min on 99% B) or ACQUITY UPLC BEH Phenyl 1.7 μm 2.1×50 mm (0.02% TFA in water and eluent B, 0.02% TFA in AcN with a gradient of 2% to 99% B in 0.9 min, 99% B for 1 min, from 99% to 2% B in 0.1 min and flow rate 0.5 ml/min at 40° C. The eluate was monitored with a PDA detector for absorbance at 325 nm. Quantification of the retinol and retinylester peak was based on references retinoic acid and retinyl acetate (Fluke). The inhibition [%] was calculated relative to the product yield from the non-inhibited control reaction.

Collagen III = Collagen III immunostaining on living human skin explants; assay type: cell-based; parameters: key: 0 = unchanged; (+) = very slight increased; + = slight increased; ++ = moderate increased; +++ = fairly clear increased; ++++ = clear increased; settings: topical
Procedure: (§1) On an abdoplasty coming from a person with a type II phototype, 51 circular skin explants of 11±1 mm in diameter were prepared. The explants were kept for survival in BEM culture medium (BIO-EC's Explants Medium, Longjumeau, France) at 37° C. in a humid, 5% CO2 atmosphere
(§2) Each morning on day 0, 1, 4 and 6 the test products (except retinol) were applied topically on the basis of […] (2 mg/cm2) of the concerned skin explants and spread using a small spatula. Each evening on day 0, 1, 4, 6 the retinol was applied topically on the basis of 2 μl/ explants (2 mg/cm2) of the concerned skin explants and spread using a small spatula. The vehicle V (DMSO 100%) was applied topically (same protocol as for products) in the morning and in the evening on day0, 1, 4, 6. The culture medium was refreshed on dayl, 4 and 6.
(§3) On day 0, 3 explants from the batch at day 0 were collected and cut in two parts. Half was fixed in buffered formalin solution and half was frozen at −80° C. On day 8, 3 explants from each experimental condition were collected and processed in the same way as on day 0.
(§4) After fixation for 24 hours in buffered formalin, the samples were dehydrated and impregnated in paraffin using a Leica PEARL dehydration automat. The samples were embedded using a Leica EG 1160 embedding station. 5-μm-thick sections were made using a Leica RM 2125 Minot-type microtome, and the sections were mounted on Superfrost® histological glass slides. The frozen samples were cut at 7-μm thickness with a Leica CM 3050 cryostat. The sections were then mounted on silanized glass slides Superfrost® Plus. The microscopical observations were realized using a Leica DMLB or Olympus BX43 microscope. Pictures were digitized with a numeric DP72 Olympus camera with cellSens storing software.
The staining was assessed by microscopical observation

[1] = tested on: living human skin explants; experiment: Epidermal thickness on living human skin explants; assay type: cell-based; parameters: key: 0 = unchanged; (+) = very slight increased; + = slight increased; ++ = moderate increased; +++ = fairly clear increased; ++++ = clear increased; settings: topical
Procedure: as §1, §2, §3, §4
The cell viability of the epidermal and dermal structures was controlled on formalin-fixed paraffin-embedded (FFPE) skin sections after to Masson's trichrome staining, Goldner variant. The cell viability was assessed by microscopical observation.

[2] = LRAT inhibitor 0.005% with Retinol 0.05%
[3] = LRAT inhibitor 0.005%, no retinol
[4] = LRAT inhibitor 0.01% with Retinol 0.05%
[5] = LRAT inhibitor 0.01%, no retinol
[6] = LRAT inhibitor 0.1% with Retinol 0.05%

LRAT inhibition, Inhibition [%] (recombinant LRAT enzyme): 89.9%
Compound: CCCCCCCCS(=O)(=O)NC(Cc1cccc(C(=N)N)c1)C(=O)N1CCN(S(=O)(=O)CCCCCCCC)CC1 (centres unmarked) [OCTS-(D,L)-F(3AMD)-Pzd(N—SO2Oct)]

LRAT inhibition, Inhibition [%] (recombinant LRAT enzyme): 0%
Compound: DODS-(L)-F(4NH2)-Pzd(N—SO2Me) [reference compound]

LRAT inhibition, Inhibition [%] (recombinant LRAT enzyme): 6.8%
Compound: CS(=O)(=O)N1CCN(C(=O)C(N)Cc2cccc(C(=N)N)c2)CC1.Cl.Cl (centres unmarked) [H-(D,L)-F(3AMD)-Pzd(N—SO2Me) × 2 HCl, H-(D,L)-F(3AMD)-Pzd(N—SO2Me), reference compound]

Continued, compound first:

Compound: CC(=O)N1CCN(C(=O)[C@H](Cc2cccc(C(=N)N)c2)NS(=O)(=O)c2ccc3ccccc3c2)CC1 [2NAPS-(L)-F(3AMD)-Pzd(N—Ac)]
LRAT inhibition, Inhibition [%] (recombinant LRAT enzyme): 38.7%

Compound: CCCCCCCCCCS(=O)(=O)NC(Cc1cccc(C(=N)N)c1)C(=O)N1CCN(S(C)(=O)=O)CC1 (centres unmarked) [LRAT-IA, DECS-(L)-F(3AMD)-Pzd(N-SO2Me)]
change of Collagen III level (staining) compared to control (vehicle only) on day 8 (Collagen III; [2]): +
change of Collagen III level (staining) compared to control (vehicle only) on day 8 (Collagen III; [3]): 0
change of Collagen III level (staining) compared to control (vehicle only) on day 8 (Collagen III; [4]): ++
change of Collagen III level (staining) compared to control (vehicle only) on day 8 (Collagen III; [5]): 0
change of Collagen III level (staining) compared to control (vehicle only) on day 8 (Collagen III; [6]): +++
change of Collagen III level (staining) compared to control (vehicle only) on day 8 (Collagen III; LRAT inhibitor 0.1%, no retinol): ++
change of Epidermis thickness compared to control (vehicle only) on day 8 [1, 2]: +
change of Epidermis thickness compared to control (vehicle only) on day 8 [1, 3]: (+)
change of Epidermis thickness compared to control (vehicle only) on day 8 [1, 4]: +
change of Epidermis thickness compared to control (vehicle only) on day 8 [1, 5]: +
change of Epidermis thickness compared to control (vehicle only) on day 8 [1, 6]: +

Compound: CC1=C(/C=C/C(C)=C/C=C/C(C)=C/CO)C(C)(C)CCC1 [Retinol, reference compound]
change of Collagen III level (staining) compared to control (vehicle only) on day 8 (Collagen III; Retinol 0.05% alone): +
change of Epidermis thickness compared to control (vehicle only) on day 8 ([1]; Retinol 0.05% alone): +
